Biological target: ER (Homo sapiens (Human), UniProt P03372)
Test: Western blot analysis (Compounds B1-B278)
Assay type: cell-based
Conditions: ER degradation by traditional Western blot; DC50 classes
Description: Western Blot Analysis. The cells that are treated with the compounds are lysed in Radioimmunoprecipitation Assay Protein Lysis and Extraction Buffer (e.g., 25 mmol/L Tris.HCl, pH 7.6, 150 mmol/L NaCl, 1% Nonidet P-40, 1% sodium deoxycholate, and 0.1% sodium dodecyl sulfate) containing proteinase inhibitor cocktail. Equal amounts of total protein are electrophoresed through 10% SDS-polyacrylamide gels after determination of protein concentration by BCA assay. The separated protein bands are transferred onto PVDF membranes and blotted against different antibodies. The blots are scanned, and the band intensities are quantified (e.g., by using GelQuant.NET software provided by biochemlabsolutions.com). The relative mean intensity of target proteins is expressed after normalization to the intensity of glyceraldehyde-3-phosphate dehydrogenase bands.
Western Blot Analysis. Western blot analysis was performed essentially as described previously. The cells treated with indicated compounds were lysed in Radioimmunoprecipitation Assay Protein Lysis and Extraction Buffer (25 mmol/L Tris.HCl, pH 7.6, 150 mmol/L NaCl, 1% Nonidet P-40, 1% sodium deoxycholate, and 0.1% sodium dodecyl sulfate) containing proteinase inhibitor cocktail (Roche Diagnostics, Mannheim, Germany). Equal amounts of total protein were electrophoresed through 10% SDS-polyacrylamide gels after determination of protein concentration by BCA assay (Fisher Scientific, Pittsburgh, PA). The separated protein bands were transferred onto PVDF membranes (GE Healthcare Life Sciences, Marlborough, MA) and blotted against different antibodies, as indicated. The blots were scanned, and the band intensities were quantified using GelQuant.NET software provided by biochemlabsolutions.com. The relative mean intensity of target proteins was expressed after normalization to the intensity of glyceraldehyde-3-phosphate dehydrogenase bands.

Chain of ER (P03372 whole entry): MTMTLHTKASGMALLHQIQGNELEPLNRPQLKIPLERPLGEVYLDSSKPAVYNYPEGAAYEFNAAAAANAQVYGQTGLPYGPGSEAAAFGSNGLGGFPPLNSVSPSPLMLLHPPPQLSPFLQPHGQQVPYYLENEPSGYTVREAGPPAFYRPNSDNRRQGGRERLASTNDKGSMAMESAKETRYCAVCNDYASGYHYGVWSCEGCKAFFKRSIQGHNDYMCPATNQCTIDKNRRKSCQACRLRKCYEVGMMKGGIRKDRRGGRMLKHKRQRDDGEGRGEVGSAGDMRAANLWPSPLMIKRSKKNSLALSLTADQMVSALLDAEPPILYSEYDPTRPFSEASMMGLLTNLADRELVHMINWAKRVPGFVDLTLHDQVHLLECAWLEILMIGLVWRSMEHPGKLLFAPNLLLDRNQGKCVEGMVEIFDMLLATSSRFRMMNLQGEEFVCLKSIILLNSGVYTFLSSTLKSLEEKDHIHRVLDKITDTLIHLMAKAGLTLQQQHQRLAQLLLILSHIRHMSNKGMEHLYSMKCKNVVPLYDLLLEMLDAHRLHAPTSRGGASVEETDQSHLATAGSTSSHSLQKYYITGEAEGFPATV

| SMILES | Traditional Western Degradation Potency |
| --- | --- |
| C[C@@H]1Cc2c([nH]c3ccccc23)[C@@H](c2c(F)cc(N3CCN(CCN4Cc5cc6c(cc5C4)C(=O)N(C4CCC(=O)NC4=O)C6)CC3)cc2F)N1CC(F)F (stereo partly drawn) [Compound B5, 3-(6-(2-(4-(4-((1R,3R)-2-(2,2-difluoroethyl)-3-methyl-2,3,4,9-tetrahydro-1H-pyrido[3,4-b]indol-1-yl)-3,5-difluorophenyl)piperazin-1-yl)ethyl)-1-oxo-3,5,6,7-tetrahydropyrrolo[3,4-f]isoindol-2(1H)-yl)piperidine-2,6-dione] | B (“B”: 10-100 nM) |
| C[C@@H]1Cc2c([nH]c3ccccc23)[C@@H](c2c(F)cc(N3CCC(N4CC(CC(=O)N5Cc6cc7c(cc6C5)C(=O)N(C5CCC(=O)NC5=O)C7=O)C4)CC3)cc2F)N1CC(F)F (stereo partly drawn) [Compound B6, 6-(2-(1-(1-(4-((1R,3R)-2-(2,2-difluoroethyl)-3-methyl-2,3,4,9-tetrahydro-1H-pyrido[3,4-b]indol-1-yl)-3,5-difluorophenyl)piperidin-4-yl)azetidin-3-yl)acetyl)-2-(2,6-dioxopiperidin-3-yl)-6,7-dihydropyrrolo[3,4-f]isoindole-1,3(2H,5H)-dione] | C (“C”: >100 nM) |
| C[C@@H]1Cc2c([nH]c3ccccc23)[C@@H](c2c(F)cc(N3CCC(N4CC(CC(=O)N5Cc6cc7c(cc6C5)C(=O)N(C5CCC(=O)NC5=O)C7)C4)CC3)cc2F)N1CC(F)F (stereo partly drawn) [Compound B7, 3-(6-(2-(1-(1-(4-((1R,3R)-2-(2,2-difluoroethyl)-3-methyl-2,3,4,9-tetrahydro-1H-pyrido[3,4-b]indol-1-yl)-3,5-difluorophenyl)piperidin-4-yl)azetidin-3-yl)acetyl)-1-oxo-3,5,6,7-tetrahydropyrrolo[3,4-f]isoindol-2(1H)-yl)piperidine-2,6-dione] | B (“B”: 10-100 nM) |
| C[C@@H]1Cc2c([nH]c3ccccc23)[C@@H](c2c(F)cc(N3CC4(CN(CC(=O)N5Cc6cc7c(cc6C5)C(=O)N(C5CCC(=O)NC5=O)C7)C4)C3)cc2F)N1CC(F)F (stereo partly drawn) [Compound B8, 3-(6-(2-(6-(4-((1R,3R)-2-(2,2-difluoroethyl)-3-methyl-2,3,4,9-tetrahydro-1H-pyrido[3,4-b]indol-1-yl)-3,5-difluorophenyl)-2,6-diazaspiro[3.3]heptan-2-yl)acetyl)-1-oxo-3,5,6,7-tetrahydropyrrolo[3,4-f]isoindol-2(1H)-yl)piperidine-2,6-dione] | A (“A”: <10 nM) |
| C[C@@H]1Cc2c([nH]c3ccccc23)[C@@H](c2c(F)cc(N3CC4(CCN(CC(=O)N5Cc6cc7c(cc6C5)C(=O)N(C5CCC(=O)NC5=O)C7=O)C4)C3)cc2F)N1CC(F)F (stereo partly drawn) [Compound B17, 6-(2-(2-(4-((1R,3R)-2-(2,2-difluoroethyl)-3-methyl-2,3,4,9-tetrahydro-1H-pyrido[3,4-b]indol-1-yl)-3,5-difluorophenyl)-2,6-diazaspiro[3.4]octan-6-yl)acetyl)-2-(2,6-dioxopiperidin-3-yl)-6,7-dihydropyrrolo[3,4-f]isoindole-1,3(2H,5H)-dione] | B (“B”: 10-100 nM) |
| C[C@@H]1Cc2c([nH]c3ccccc23)[C@@H](c2c(F)cc(N3CCC4(CCN(CC(=O)N5Cc6cc7c(cc6C5)C(=O)N(C5CCC(=O)NC5=O)C7=O)C4)C3)cc2F)N1CC(F)F (stereo partly drawn) [Compound B19, 6-(2-(7-(4-((1R,3R)-2-(2,2-difluoroethyl)-3-methyl-2,3,4,9-tetrahydro-1H-pyrido[3,4-b]indol-1-yl)-3,5-difluorophenyl)-2,7-diazaspiro[4.4]nonan-2-yl)acetyl)-2-(2,6-dioxopiperidin-3-yl)-6,7-dihydropyrrolo[3,4-f]isoindole-1,3(2H,5H)-dione] | C (“C”: >100 nM) |
| C[C@@H]1Cc2c([nH]c3ccccc23)[C@@H](c2c(F)cc(N3CC4(CCN(C(=O)CN5Cc6cc7c(cc6C5)C(=O)N(C5CCC(=O)NC5=O)C7=O)C4)C3)cc2F)N1CC(F)F (stereo partly drawn) [Compound B20, 6-(2-(2-(4-((1R,3R)-2-(2,2-difluoroethyl)-3-methyl-2,3,4,9-tetrahydro-1H-pyrido[3,4-b]indol-1-yl)-3,5-difluorophenyl)-2,6-diazaspiro[3.4]octan-6-yl)-2-oxoethyl)-2-(2,6-dioxopiperidin-3-yl)-6,7-dihydropyrrolo[3,4-f]isoindole-1,3(2H,5H)-dione] | A (“A”: <10 nM) |

The remaining lines, values ahead:

| Traditional Western Degradation Potency | SMILES |
| --- | --- |
| A (“A”: <10 nM) | C[C@@H]1Cc2c([nH]c3ccccc23)[C@@H](c2c(F)cc(N3CC4(CCN(C(=O)CN5Cc6cc7c(cc6C5)C(=O)N(C5CCC(=O)NC5=O)C7)C4)C3)cc2F)N1CC(F)F (stereo partly drawn) [Compound B9, 3-(6-(2-(2-(4-((1R,3R)-2-(2,2-difluoroethyl)-3-methyl-2,3,4,9-tetrahydro-1H-pyrido[3,4-b]indol-1-yl)-3,5-difluorophenyl)-2,6-diazaspiro[3.4]octan-6-yl)-2-oxoethyl)-1-oxo-3,5,6,7-tetrahydropyrrolo[3,4-f]isoindol-2(1H)-yl)piperidine-2,6-dione] |
| B (“B”: 10-100 nM) | C[C@@H]1Cc2c([nH]c3ccccc23)[C@@H](c2c(F)cc(N3CCC4(CCN(C(=O)CN5Cc6cc7c(cc6C5)C(=O)N(C5CCC(=O)NC5=O)C7)C4)C3)cc2F)N1CC(F)F (stereo partly drawn) [Compound B11, 3-(6-(2-(7-(4-((1R,3R)-2-(2,2-difluoroethyl)-3-methyl-2,3,4,9-tetrahydro-1H-pyrido[3,4-b]indol-1-yl)-3,5-difluorophenyl)-2,7-diazaspiro[4.4]nonan-2-yl)-2-oxoethyl)-1-oxo-3,5,6,7-tetrahydropyrrolo[3,4-f]isoindol-2(1H)-yl)piperidine-2,6-dione] |
| C (“C”: >100 nM) | C[C@@H]1Cc2c([nH]c3ccccc23)[C@@H](c2c(F)cc(N3CC4(CCCN(C(=O)CN5Cc6cc7c(cc6C5)C(=O)N(C5CCC(=O)NC5=O)C7)C4)C3)cc2F)N1CC(F)F (stereo partly drawn) [Compound B12, 3-(6-(2-(2-(4-((1R,3R)-2-(2,2-difluoroethyl)-3-methyl-2,3,4,9-tetrahydro-1H-pyrido[3,4-b]indol-1-yl)-3,5-difluorophenyl)-2,6-diazaspiro[3.5]nonan-6-yl)-2-oxoethyl)-1-oxo-3,5,6,7-tetrahydropyrrolo[3,4-f]isoindol-2(1H)-yl)piperidine-2,6-dione] |
| B (“B”: 10-100 nM) | C[C@@H]1Cc2c([nH]c3ccccc23)[C@@H](c2c(F)cc(N3CCCC4(CN(C(=O)CN5Cc6cc7c(cc6C5)C(=O)N(C5CCC(=O)NC5=O)C7)C4)C3)cc2F)N1CC(F)F (stereo partly drawn) [Compound B13, 3-(6-(2-(6-(4-((1R,3R)-2-(2,2-difluoroethyl)-3-methyl-2,3,4,9-tetrahydro-1H-pyrido[3,4-b]indol-1-yl)-3,5-difluorophenyl)-2,6-diazaspiro[3.5]nonan-2-yl)-2-oxoethyl)-1-oxo-3,5,6,7-tetrahydropyrrolo[3,4-f]isoindol-2(1H)-yl)piperidine-2,6-dione] |
| A (“A”: <10 nM) | C[C@@H]1Cc2c([nH]c3ccccc23)[C@@H](c2c(F)cc(N3CC4(CN(C(=O)CN5Cc6cc7c(cc6C5)C(=O)N(C5CCC(=O)NC5=O)C7)C4)C3)cc2F)N1CC(F)F (stereo partly drawn) [Compound B14, 3-(6-(2-(6-(4-((1R,3R)-2-(2,2-difluoroethyl)-3-methyl-2,3,4,9-tetrahydro-1H-pyrido[3,4-b]indol-1-yl)-3,5-difluorophenyl)-2,6-diazaspiro[3.3]heptan-2-yl)-2-oxoethyl)-1-oxo-3,5,6,7-tetrahydropyrrolo[3,4-b]isoindol-2(1H)-yl)piperidine-2,6-dione] |
| A (“A”: <10 nM) | C[C@@H]1Cc2c([nH]c3ccccc23)[C@@H](c2c(F)cc(N3CCC4(CN(C(=O)CN5Cc6cc7c(cc6C5)C(=O)N(C5CCC(=O)NC5=O)C7)C4)C3)cc2F)N1CC(F)F (stereo partly drawn) [Compound B15, 3-(6-(2-(6-(4-((1R,3R)-2-(2,2-difluoroethyl)-3-methyl-2,3,4,9-tetrahydro-1H-pyrido[3,4-b]indol-1-yl)-3,5-difluorophenyl)-2,6-diazaspiro[3.4]octan-2-yl)-2-oxoethyl)-1-oxo-3,5,6,7-tetrahydropyrrolo[3,4-f]isoindol-2(1H)-yl)piperidine-2,6-dione] |
| A (“A”: <10 nM) | C[C@@H]1Cc2c([nH]c3ccccc23)[C@@H](c2c(F)cc(N3CC4(CCN(CC(=O)N5Cc6cc7c(cc6C5)C(=O)N(C5CCC(=O)NC5=O)C7)C4)C3)cc2F)N1CC(F)F (stereo partly drawn) [Compound B16, 3-(6-(2-(2-(4-((1R,3R)-2-(2,2-difluoroethyl)-3-methyl-2,3,4,9-tetrahydro-1H-pyrido[3,4-b]indol-1-yl)-3,5-difluorophenyl)-2,6-diazaspiro[3.4]octan-6-yl)acetyl)-1-oxo-3,5,6,7-tetrahydropyrrolo[3,4-f]isoindol-2(1H)-yl)piperidine-2,6-dione] |

Reference: patent US20260007681A1, “INDOLE DERIVATIVES AS ESTROGEN RECEPTOR DEGRADERS” (REGENTS OF THE UNIVERSITY OF MICHIGAN, priority 2022, published 2026)
